Results reported in article PMC7982320 (Pharmacology Research & Perspectives, 2021).
Several values for one entry are separate records, joined by “and”; a condition that tells them apart may be missing. Equal values may be shown once. Entries after “also recorded” stand apart in the source; their conditions may differ. Read-outs that look alike come from different tables or passages of the source.

Key:
CYP3A4 = CYP3A4 (Homo sapiens, UniProt P08684); test: CYP inhibition in pooled human liver microsomes, midazolam or testosterone probe; format: in vitro ADME; conditions: for IC50: read-out: IC50, No preincubation, pooled HLMs, n = 3
CYP2B6 = test: in vitro; format: in vitro ADME, human; conditions: 48 h
human BCRP = target: T1, human BCRP (Homo sapiens, UniProt Q9UNQ0); test: Transporter inhibition, vesicular transport assay; format: in vitro ADME
T1 sequence (Q9UNQ0 1-655): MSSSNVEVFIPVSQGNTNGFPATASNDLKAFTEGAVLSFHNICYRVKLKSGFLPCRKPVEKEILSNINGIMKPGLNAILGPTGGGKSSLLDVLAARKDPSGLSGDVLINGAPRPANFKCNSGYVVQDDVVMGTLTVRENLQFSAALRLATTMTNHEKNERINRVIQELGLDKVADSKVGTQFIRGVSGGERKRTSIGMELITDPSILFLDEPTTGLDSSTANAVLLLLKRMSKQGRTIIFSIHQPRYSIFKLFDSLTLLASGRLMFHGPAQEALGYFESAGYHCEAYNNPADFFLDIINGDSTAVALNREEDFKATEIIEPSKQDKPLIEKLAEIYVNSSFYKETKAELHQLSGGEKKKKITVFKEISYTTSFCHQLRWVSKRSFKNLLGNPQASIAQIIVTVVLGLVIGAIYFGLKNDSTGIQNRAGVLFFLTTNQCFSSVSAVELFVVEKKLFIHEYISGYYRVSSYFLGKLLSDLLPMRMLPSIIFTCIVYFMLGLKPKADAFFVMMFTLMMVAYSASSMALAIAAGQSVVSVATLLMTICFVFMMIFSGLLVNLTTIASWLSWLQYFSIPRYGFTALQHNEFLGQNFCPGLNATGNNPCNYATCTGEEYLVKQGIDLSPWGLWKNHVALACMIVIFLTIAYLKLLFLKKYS

human OCT1 = human OCT1 (Homo sapiens, UniProt O15245); test: Transporter inhibition, uptake assay; format: in vitro ADME
human OCT2 = target: T2, human OCT2 (Homo sapiens, UniProt O15244); test: Transporter inhibition, uptake assay; format: in vitro ADME
T2 sequence (O15244 1-555): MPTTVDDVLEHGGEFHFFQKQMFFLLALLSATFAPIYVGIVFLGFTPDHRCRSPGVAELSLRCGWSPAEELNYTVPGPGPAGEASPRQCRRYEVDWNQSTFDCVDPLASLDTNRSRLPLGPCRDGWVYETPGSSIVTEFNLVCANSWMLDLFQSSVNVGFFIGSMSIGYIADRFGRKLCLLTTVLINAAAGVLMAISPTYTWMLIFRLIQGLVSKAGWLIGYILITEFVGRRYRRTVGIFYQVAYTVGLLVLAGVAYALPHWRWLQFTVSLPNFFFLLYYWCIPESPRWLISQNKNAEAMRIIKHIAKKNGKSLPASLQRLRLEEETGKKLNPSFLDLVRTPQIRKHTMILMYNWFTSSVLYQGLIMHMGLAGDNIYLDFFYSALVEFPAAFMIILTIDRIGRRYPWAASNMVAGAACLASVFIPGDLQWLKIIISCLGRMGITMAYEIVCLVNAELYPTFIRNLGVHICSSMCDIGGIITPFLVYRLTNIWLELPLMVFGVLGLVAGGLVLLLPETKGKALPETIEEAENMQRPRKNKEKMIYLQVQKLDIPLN

Sequence of CYP3A4 (P08684 whole entry): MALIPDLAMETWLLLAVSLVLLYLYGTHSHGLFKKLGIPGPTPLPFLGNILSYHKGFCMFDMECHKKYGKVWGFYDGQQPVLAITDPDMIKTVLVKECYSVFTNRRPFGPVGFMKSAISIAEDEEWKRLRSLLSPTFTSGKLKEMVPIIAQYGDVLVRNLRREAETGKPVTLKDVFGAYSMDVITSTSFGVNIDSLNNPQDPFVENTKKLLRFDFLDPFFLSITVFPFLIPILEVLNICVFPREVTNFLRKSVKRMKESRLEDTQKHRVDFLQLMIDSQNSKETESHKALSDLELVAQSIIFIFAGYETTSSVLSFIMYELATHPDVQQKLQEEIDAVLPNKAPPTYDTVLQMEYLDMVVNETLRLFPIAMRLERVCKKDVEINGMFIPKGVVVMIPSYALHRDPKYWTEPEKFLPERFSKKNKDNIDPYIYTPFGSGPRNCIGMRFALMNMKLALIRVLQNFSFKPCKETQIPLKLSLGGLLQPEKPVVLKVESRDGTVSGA
Sequence of human OCT1 (O15245 whole entry): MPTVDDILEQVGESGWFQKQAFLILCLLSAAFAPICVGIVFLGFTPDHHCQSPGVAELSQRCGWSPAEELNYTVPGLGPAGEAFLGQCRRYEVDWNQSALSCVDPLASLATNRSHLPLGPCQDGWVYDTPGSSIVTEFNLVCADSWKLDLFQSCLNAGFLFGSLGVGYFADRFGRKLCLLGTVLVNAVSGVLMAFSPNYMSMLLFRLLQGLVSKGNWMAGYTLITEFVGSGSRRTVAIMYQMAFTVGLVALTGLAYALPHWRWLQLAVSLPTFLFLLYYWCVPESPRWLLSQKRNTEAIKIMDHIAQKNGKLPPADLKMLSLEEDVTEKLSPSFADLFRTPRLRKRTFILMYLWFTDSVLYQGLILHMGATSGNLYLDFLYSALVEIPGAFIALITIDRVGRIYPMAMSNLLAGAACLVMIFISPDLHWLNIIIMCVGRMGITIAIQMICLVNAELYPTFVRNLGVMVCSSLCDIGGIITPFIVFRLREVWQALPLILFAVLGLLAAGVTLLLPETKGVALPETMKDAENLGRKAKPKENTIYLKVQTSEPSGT

With `CC1=N[C@]2(C(=O)CO)[C@@H](C[C@H]3[C@@H]4C[C@@H](O)C5=CC(=O)C=C[C@]5(C)[C@H]4[C@@H](O)C[C@@]32C)O1` [6β‐OH‐21‐desDFZ, 6β‐Hydroxy‐21‐desacetyl deflazacort] the “estimated plasma Cmax/IC50 ratio” value (CYP3A4; CYP3A4, Cmax 0.34 µM, assumed 100% free) was 0.01, the IC50 (CYP3A4; CYP3A4 (Midazolam)) was ~35 µM and ≥ 20 µM and the IC50 (CYP3A4; CYP3A4 (Midazolam), listed as 6β‐hydroxy‐21‐desacetyl deflazacort) was 35 µM. For the same compound, the IC50 (CYP3A4; CYP3A4 (Testosterone)) was > 50 µM, the “CYP2B6 enzyme activity fold induction” value (CYP2B6; donor one, 0.002 µM) was 0.921 fold and the “CYP2B6 mRNA fold induction” value (CYP2B6; donor one, 0.002 µM) was 0.680 fold. For the same compound, the “CYP2B6 enzyme activity fold induction” value (CYP2B6; donor one, 0.01 µM) was 0.826 fold, the “CYP2B6 mRNA fold induction” value (CYP2B6; donor one, 0.01 µM) was 0.750 fold and the “CYP2B6 enzyme activity fold induction” value (CYP2B6; donor one, 0.05 µM) was 0.767 fold. The “CYP2B6 mRNA fold induction” value (CYP2B6; donor one, 0.05 µM) was 0.736 fold, the “CYP2B6 enzyme activity fold induction” value (CYP2B6; donor one, 0.25 µM) was 0.752 fold and the “CYP2B6 mRNA fold induction” value (CYP2B6; donor one, 0.25 µM) was 0.794 fold. The “CYP2B6 enzyme activity fold induction” value (CYP2B6; donor one, 5 µM) was 0.832 fold, the “CYP2B6 mRNA fold induction” value (CYP2B6; donor one, 5 µM) was 0.616 fold and the “CYP2B6 enzyme activity fold induction” value (CYP2B6; donor one, 10 µM) was 0.814 fold. The “CYP2B6 mRNA fold induction” value (CYP2B6; donor one, 10 µM) was 0.663 fold, the “CYP2B6 enzyme activity fold induction” value (CYP2B6; donor one, 20 µM) was 0.896 fold and the “CYP2B6 mRNA fold induction” value (CYP2B6; donor one, 20 µM) was 0.756 fold. For the same compound, the “CYP2B6 enzyme activity fold induction” value (CYP2B6; donor three, 0.002 µM) was 0.836 fold, the “CYP2B6 mRNA fold induction” value (CYP2B6; donor three, 0.002 µM) was 0.704 fold and the “CYP2B6 enzyme activity fold induction” value (CYP2B6; donor three, 0.01 µM) was 0.829 fold. The “CYP2B6 mRNA fold induction” value (CYP2B6; donor three, 0.01 µM) was 0.745 fold, the “CYP2B6 enzyme activity fold induction” value (CYP2B6; donor three, 0.05 µM) was 0.829 fold and the “CYP2B6 mRNA fold induction” value (CYP2B6; donor three, 0.05 µM) was 0.721 fold. For the same compound, the “CYP2B6 enzyme activity fold induction” value (CYP2B6; donor three, 0.25 µM) was 0.810 fold, the “CYP2B6 mRNA fold induction” value (CYP2B6; donor three, 0.25 µM) was 0.726 fold and the “CYP2B6 enzyme activity fold induction” value (CYP2B6; donor three, 5 µM) was 1.01 fold. For the same compound, the “CYP2B6 mRNA fold induction” value (CYP2B6; donor three, 5 µM) was 0.791 fold, the “CYP2B6 enzyme activity fold induction” value (CYP2B6; donor three, 10 µM) was 1.13 fold and the “CYP2B6 mRNA fold induction” value (CYP2B6; donor three, 10 µM) was 0.806 fold. The “CYP2B6 enzyme activity fold induction” value (CYP2B6; donor three, 20 µM) was 1.08 fold, the “CYP2B6 mRNA fold induction” value (CYP2B6; donor three, 20 µM) was 0.840 fold and the “CYP2B6 enzyme activity fold induction” value (CYP2B6; donor two, 0.002 µM) was 0.960 fold. The “CYP2B6 mRNA fold induction” value (CYP2B6; donor two, 0.002 µM) was 0.643 fold, the “CYP2B6 enzyme activity fold induction” value (CYP2B6; donor two, 0.01 µM) was 0.895 fold and the “CYP2B6 mRNA fold induction” value (CYP2B6; donor two, 0.01 µM) was 0.522 fold. For the same compound, the “CYP2B6 enzyme activity fold induction” value (CYP2B6; donor two, 0.05 µM) was 0.944 fold, the “CYP2B6 mRNA fold induction” value (CYP2B6; donor two, 0.05 µM) was 0.571 fold and the “CYP2B6 enzyme activity fold induction” value (CYP2B6; donor two, 0.25 µM) was 0.963 fold. For the same compound, the “CYP2B6 mRNA fold induction” value (CYP2B6; donor two, 0.25 µM) was 0.622 fold, the “CYP2B6 enzyme activity fold induction” value (CYP2B6; donor two, 5 µM) was 1.22 fold and the “CYP2B6 mRNA fold induction” value (CYP2B6; donor two, 5 µM) was 0.515 fold. The “CYP2B6 enzyme activity fold induction” value (CYP2B6; donor two, 10 µM) was 1.20 fold, the “CYP2B6 mRNA fold induction” value (CYP2B6; donor two, 10 µM) was 0.596 fold and the “CYP2B6 enzyme activity fold induction” value (CYP2B6; donor two, 20 µM) was 1.40 fold. The “CYP2B6 mRNA fold induction” value (CYP2B6; donor two, 20 µM) was 0.809 fold, the “induction of CYP2B6 (mRNA or enzyme activity), conclusion” value (CYP2B6; human hepatocytes, three donors) was “no meaningful concentration‐dependent induction; also recorded: did not appear to be an inducer; also recorded: did not induce” and the “Maximum inhibition at 50 µM” value (human BCRP; BCRP VT, n = 3) was <20 % of control. For the same compound, the “inhibitory interaction with transporter” value (human BCRP; BCRP, up to 50 µM) was “no inhibitory interaction”, the “inhibitory interaction with transporter” value (human OCT1; OCT1, up to 50 µM) was “no inhibitory interaction” and the “Maximum inhibition at 50 µM” value (human OCT1; OCT1 UPT, n = 3) was 23 % of control. The “inhibitory interaction with transporter” value (human OCT2; OCT2, up to 50 µM) was “did not show interaction; also recorded: no inhibitory interaction” and the “Maximum inhibition at 50 µM” value (human OCT2; OCT2 UPT, n = 3) was <20 % of control.
